# Data from ChEMBL document CHEMBL5634125, “Investigation of novel 5'-amino adenosine derivatives with potential anti-Zika virus activity” (Eur J Med Chem, 2023).
# Active and inactive are the calls of the source. The calls are words filed in the database; no cut-off is given here.
# Experiments:
# [1] = Half-life in ICR mouse at 25 mg/kg, po administered as single dose and measured upto 24 hrs by LC-MS/MS analysis; type: ADME, organism-based; conditions: in vivo
# [2] = tested on: Zika virus; test: Antiviral activity against Zika virus infected in golden hamster BHK cells assessed as inhibition of virus induced cytopathic effect incubated for 6 to 8 days by CellTiter-Glo luminescent cell viability assay; type: functional, organism-based
# [3] = Tmax in ICR mouse at 25 mg/kg, po administered as single dose and measured upto 24 hrs by LC-MS/MS analysis; type: ADME, organism-based; conditions: in vivo
# [4] = Cmax in ICR mouse at 25 mg/kg, po administered as single dose and measured upto 24 hrs by LC-MS/MS analysis; type: ADME, organism-based; conditions: in vivo
# [5] = AUC (0 to t) in ICR mouse at 25 mg/kg, po administered as single dose and measured upto 24 hrs by LC-MS/MS analysis; type: ADME, organism-based; conditions: in vivo
# [6] = MRT in ICR mouse at 25 mg/kg, po administered as single dose and measured upto 24 hrs by LC-MS/MS analysis; type: ADME, organism-based; conditions: in vivo
# [7] = Acute toxicity in A129 mouse assessed as animal death at 50 mg/kg, po measured after 2 weeks; type: organism-based; conditions: in vivo, 336 h
# [8] = Acute toxicity in A129 mouse assessed as animal death at 100 mg/kg, po measured after 2 weeks; type: organism-based; conditions: in vivo, 336 h
# [9] = Acute toxicity in A129 mouse assessed as animal death at 200 mg/kg, po measured after 2 weeks; type: organism-based; conditions: in vivo, 336 h
# [10] = Acute toxicity in po dosed ICR mouse assessed as lethal dose measured after 2 weeks; type: organism-based; conditions: in vivo
# [11] = tested on: Zika virus; test: Antiviral activity against Zika virus infected in golden hamster BHK cells assessed as inhibition of viral protein production incubated for 72 hrs by Western blot analysis; type: functional, organism-based; conditions: dose 2.5-20 µM
# [12] = tested on: Zika virus; test: Antiviral activity against Zika virus infected in golden hamster BHK cells assessed as inhibition of viral replication incubated for 72 hrs by qRT-PCR analysis; type: functional, organism-based; conditions: dose 2.5-20 µM
# [13] = tested on: Zika virus; test: Antiviral activity against Zika virus infected in golden hamster BHK cells assessed as reduction in infectious viral propagation incubated for 72 hrs by plaque reduction assay; type: functional, organism-based; conditions: dose 2.5-20 µM
# [14] = tested on: Zika virus; test: Antiviral activity against Zika virus infected in infected in golden hamster BHK cells assessed as inhibition of viral RNA production at stage III incubated for 24 hrs by qRT-PCR analysis; type: functional, organism-based
# [15] = tested on: Zika virus; test: Antiviral activity against Zika virus infected in golden hamster BHK cells assessed as inhibition of viral RNA production at stage IV pre-infected with virus for 2 hrs followed by compound addition and measured 24 hrs post infection by qRT-PCR analysis; type: functional, organism-based; conditions: time 22.0 hrs
# [16] = tested on: Dengue virus; test: Antiviral activity against Dengue virus assessed as inhibition of viral RNA production at stage III; type: functional, organism-based
# [17] = tested on: Dengue virus; test: Antiviral activity against Dengue virus assessed as inhibition of viral RNA production at stage IV; type: functional, organism-based
# [18] = tested on: Zika virus; test: Antiviral activity against Zika virus infected in golden hamster BHK-21 cells assessed as inhibition of viral replication incubated for 72 hrs by Dual-luciferase reporter assay system; type: functional, organism-based; conditions: BHK-21, 72 h
# [19] = tested on: Zika virus; test: Inhibition of Zika virus NS5 MTase activity at 50 uM by chemiluminescence-based enzymatic assay system relative to control
# [20] = tested on: Zika virus; test: Inhibition of Zika virus NS2B-NS3 protease using Bz-Nle-Lys-Lys-Arg-AMC as substrate at 1.25 to 200 uM preincubated for 30 mins followed by substrate addition and measured after 20 mins by Real-time fluorescence based analysis; conditions: dose 1.25-200 µM, time 50.0 min
# [21] = tested on: Zika virus; test: Inhibition of Zika virus NS5-RdRp preincubated for 20 mins followed by ATP addition and measured after 60 mins by fluorescence based assay; conditions: dose 3.13-50 µM, time 80.0 min
# [22] = tested on: Zika virus; test: Inhibition of Zika virus NS5-RdRp at 12.5 uM preincubated for 20 mins followed by ATP addition and measured after 60 mins by fluorescence based assay relative to control; conditions: time 80.0 min
# [23] = tested on: Zika virus; test: Inhibition of Zika virus NS5-RdRp at 50 uM preincubated for 20 mins followed by ATP addition and measured after 60 mins by fluorescence based assay relative to control; conditions: time 80.0 min
# [24] = Inhibition of Zika virus NS5 transfected in HEK293T cells co-transfected with GLuc reporter plasmid incubated for 24 hrs by GLuc reporter assay; type: cell-based; conditions: HEK-293T
# [25] = target: NS5 (Zika virus) (UniProt A0A143MHK7); test: Binding affinity to Zika virus RdRp by SPR analysis; conditions: dose 1.56-25 µM
# [26] = tested on: Zika virus; test: Antiviral activity against Zika virus infected in U87 cells assessed as suppression of CXCL11 expression at 10 uM by KEGG enrichment analysis; type: functional, organism-based
# [27] = tested on: U-87MG ATCC; test: Effect on CXCL2 expression in human U87 cells infected with Zika virus at 10 uM by KEGG enrichment analysis; type: functional, cell-based
# [28] = tested on: U-87MG ATCC; test: Effect on CXCL3 expression in human U87 cells infected with Zika virus at 10 uM by KEGG enrichment analysis; type: functional, cell-based
# [29] = tested on: U-87MG ATCC; test: Effect on CXCL8 expression in human U87 cells infected with Zika virus at 10 uM by KEGG enrichment analysis; type: functional, cell-based
# [30] = tested on: Zika virus; test: Antiviral activity against Zika virus SMGC-1 infected in ICR mouse assessed as survival at 10 mg/kg, ip pre-infected with virus for 4 hrs followed by once daily compound administration for 9 days and measured after 24 days relative to control; type: functional; conditions: SMGC-1, 576 h, time 24 day
# [31] = tested on: Zika virus; test: Antiviral activity against Zika virus SMGC-1 infected in ICR mouse assessed as increase in body weight at 10 mg/kg, ip pre-infected with virus for 4 hrs followed by once daily compound administration for 9 days and measured at 14 to 24 days; type: functional, organism-based; conditions: time 14-24 day
# [32] = tested on: Zika virus; test: Antiviral activity against Zika virus SMGC-1 infected in ICR mouse assessed as survival at 1 mg/kg, ip pre-infected with virus for 4 hrs followed by once daily compound administration for 9 days and measured after 24 days relative to control; type: functional; conditions: SMGC-1, 576 h, time 24 day
# [33] = tested on: Zika virus; test: Antiviral activity against Zika virus infected in Ifnar-/- A129 mouse assessed as reduction in viral RNA in serum at 10 mg/kg, ip administered twice daily for 4 days by qRT-PCR analysis; type: functional, organism-based; conditions: time 4.0 day
smiles,measurement,setting,value
O[C@@H]1[C@H](O)[C@@H](CNCc2ccc(C(F)(F)F)cc2)O[C@H]1n1cnc2c(NCc3cccc(Cl)c3)ncnc21,half-life,[1],148 min
same,IC50,[2],2150 nM
same,Tmax,[3],25.2 min
same,Cmax,[4],699 ng/mL
same,AUC(0-t) at 24 h,[5],2220 ng·h/mL
same,MRT,[6],3.82 h
same,Activity,[7],Non-Toxic
same,Activity,[8],Non-Toxic
same,Activity,[9],Non-Toxic
same,LD50 at 336 h,[10],> 200 mg/kg
same,Activity,[11],Dose-Dependent Effect
same,Activity,[12],Dose-Dependent Effect
same,Activity,[13],Dose-Dependent Effect
same,Activity,[14],Active
same,Activity,[15],Active
same,Activity,[16],Active
same,Activity,[17],Active
same,IC50,[18],5.27 µM
same,inhibition,[19],20.5%
same,inhibition,[20],inactive
same,inhibition,[21],Dose-Dependent Effect
same,inhibition,[22],17.5%
same,inhibition,[23],62.4%
same,IC50,[24],8.78 µM
same,Activity,[25],Dose-Dependent Effect
same,Activity,[26],Active
same,Activity,[27],inactive
same,Activity,[28],inactive
same,Activity,[29],inactive
same,survival at 10 mg/kg,[30],70%
same,Activity,[31],Active
same,survival at 1 mg/kg,[32],30%
same,Activity,[33],Active
